Experimental data reported in US5834482A, “Heterocyclic chemistry” (Novo Nordisk A/S, priority 1995, dated 1998).
Where a name gives a salt, the structure may show the parent alone. Read-outs that look alike come from different tables or passages of the source.

Key:
GABA uptake carrier = target: T1, GABA uptake carrier (Rattus norvegicus, UniProt P31647); assay: 3H-GABA uptake in crude membrane preparation from selected brain areas (in presence of NNC 05-0711); format: biochemical
T1 construct: A crude membrane preparation was prepared from selected brain areas; from tissue
T1 sequence (P31647 1-627): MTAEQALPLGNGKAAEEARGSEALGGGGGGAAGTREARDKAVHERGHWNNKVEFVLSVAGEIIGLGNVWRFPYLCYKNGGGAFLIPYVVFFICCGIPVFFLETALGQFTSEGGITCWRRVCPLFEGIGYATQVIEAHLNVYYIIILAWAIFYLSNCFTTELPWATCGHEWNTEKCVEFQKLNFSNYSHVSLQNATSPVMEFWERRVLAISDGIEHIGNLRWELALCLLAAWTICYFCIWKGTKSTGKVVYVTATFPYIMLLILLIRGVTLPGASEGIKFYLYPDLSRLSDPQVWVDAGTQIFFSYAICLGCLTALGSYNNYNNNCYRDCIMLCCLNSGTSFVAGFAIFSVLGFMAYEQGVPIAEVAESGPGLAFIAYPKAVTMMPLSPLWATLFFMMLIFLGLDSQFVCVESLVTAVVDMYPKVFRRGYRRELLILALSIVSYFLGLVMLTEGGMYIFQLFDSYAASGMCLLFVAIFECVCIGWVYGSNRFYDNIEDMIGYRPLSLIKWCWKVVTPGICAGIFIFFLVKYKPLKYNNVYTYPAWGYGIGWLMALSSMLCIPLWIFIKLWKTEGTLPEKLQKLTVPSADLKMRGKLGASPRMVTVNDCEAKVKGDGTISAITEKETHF
Protocol: ^3 H-GABA uptake was measured by a modification of the method of Fjalland et al., (1978). A crude membrane preparation was prepared from selected brain areas by homogenization in 20 ml of ice-cold 0.32M sucrose with a hand driven teflon/glass Potter-Elvehjem homogenizer. homogenate was centrifuged at 4° C. for 10 min. at 1000×g, and the pellet was discarded. The supernatant was recentrifuged at 4° C. for 20 min. at 20.000×g. The pellet was then homogenized in 50 volumes 0.32M sucrose. To 300 μl uptake-buffer ([…], 15.3 mM KCl, 6.67 mM MgSO4, 3.83 mM CaCl2, 16.67 mM glucose, 66.67 mM Tris, pH 7.5 at 30° C.) was added 1-(2-(((diphenylmethylene)amino)oxy)ethyl)-1,2,5,6-tetrahydro-3-pyridinecarboxylic acid (NNC 05-0711) (1 mM final concentration), 100 μl test substance and 50 μl tissue suspension. The sample were mixed and incubated at 30° C. for 8 min. Then ^3 H-GABA (0.9 nM final concentration) and unlabelled GABA (25 nM final concentration) was added, and the incubation was continued for an additional 8 min. The reaction was terminated by rapid filtration through Whatman GF/F glass fiber filters under vacuum. The filters were then washed twice in 10 ml of ice-cold isotonic saline, and the tritium trapped on the filters was quantified by conventional scintillation spectroscopy. Non-GABA uptake carrier mediated uptake of ^3 H-GABA was determined in the presence of […].

GABA uptake [1] = conditions: cited from earlier work
GABA uptake [2] = conditions: into presynaptic nerve terminals and glial cells; cited from earlier work
GAT-1 = conditions: cloned GAT-1; cited from earlier work
[3] = in vitro, crude brain membrane preparation, 1 mM NNC 05-0711, 30° C., 8 min, 0.9 nM 3H-GABA, 25 nM unlabelled GABA, read-out: IC50 (nM) in vitro, Non-GABA uptake carrier mediated uptake of 3H-GABA

Compound	IC50 (GABA uptake carrier; [3])	inhibition of GABA uptake, oral activity (GABA uptake [1])	also measured
CCc1noc(-c2cc3c4ccccc4n(CCCN4CCC(O)(c5ccccc5)CC4)c3cn2)n1 [Compound 4, 1-(3-(3-(3-Ethyl-1,2,4-oxadiazol-5-yl)-9H-β-carbolin-9-yl)-1-propyl)-4-phenylpiperidin-4-ol]	932 nM		
OC1(c2ccccc2)CCN(CCCn2c3ccccc3c3cc(-c4nc(C5CC5)no4)ncc32)CC1 [Compound 7, 1-(3-(3-(3-Cyclopropyl-1,2,4-oxadiazol-5-yl)-9H-β-carbolin-9-yl)-1-propyl)-4-phenylpiperidin-4-ol hydrochloride]			IC50 (GABA uptake carrier): 1090 nM
OC1(c2ccccc2)CCN(CCCn2c3ccccc3c3cc(-c4nc(-c5ccccc5)no4)ncc32)CC1 [Compound 10, 1-(3-(3-(3-Phenyl-1,2,4-oxadiazol-5-yl)-9H-β-carbolin-9-yl)-1-propyl)-4-phenylpiperidin-4-ol hydrochloride]			IC50 (GABA uptake carrier): 1440 nM
CCOC(=O)c1cc2c(cn1)[nH]c1ccc([N+](=O)[O-])cc12 [Compound 15, 6-Nitro-9H-β-carboline-3-carboxylic acid ethyl ester]			IC50 (GABA uptake carrier): 6380 nM
C=CCN(CC=C)c1ccc2c(c1)c1cc(-c3nc(CC)no3)ncc1n2CCCN1CCC(O)(c2ccccc2)CC1 [Compound 20, 1-(3-(3-(3-Ethyl-1,2,4-oxadiazol-5-yl)-6-dipropenylamino-9H-β-carbolin-9-yl)-1-propyl-4-phenylpiperidin-4-ol hydrochloride]	5380 nM		
CCc1noc(-c2cc3c4cc(N(C)C)ccc4n(CCCN4CCC(O)(c5ccccc5)CC4)c3cn2)n1 [Compound 24]	4690 nM		
Cc1noc(-c2cc3c4ccccc4n(CCCN4CCC(O)(c5ccccc5)CC4)c3cn2)n1 [Compound 26, 1-(3-(3-Methyl-1,2,4-oxadiazol-5-yl)-β-carbolin-9-yl)-1-propyl)-4-phenylpiperidin-4-ol hydrochloride]	1640 nM		
Cc1nc(-c2cc3c4ccccc4n(CCCN4CCC(O)(c5ccccc5)CC4)c3cn2)no1 [Compound 28, 1-(3-(5-Methyl-1,2,4-oxadiazol-3-yl)-β-carbolin-9-yl)-1-propyl)-4-phenylpiperidin-4-ol hydrochloride]	1240 nM		
O=C(O)C1CCCN(CCC=C(c2ccccc2)c2ccccc2)C1 (centres unmarked) [SK&F 89976A, N-(4,4-diphenyl-3-buten-1-yl)nipecotic acid]		orally active inhibitors of GABA uptake	
O=C(O)C1=CCCN(CCC=C(c2ccccc2)c2ccccc2)C1 [SK&F 100330A, N-(4,4-diphenyl-3-buten-1-yl)guvacine]		orally active inhibitors of GABA uptake	
O=C(O)CC1CCN(CCC=C(c2ccccc2)c2ccccc2)C1 (stereo not drawn) [SK&F 100561, N-(4,4-diphenyl-3-buten-1-yl)-homo-β-proline]		orally active inhibitors of GABA uptake	
O=C(O)C1CCCN(CCC=C(c2ccccc2)c2cccs2)C1 (centres unmarked) [SK&F 100604J, N-(4-phenyl-4-(2-thienyl)-3-buten-1-yl)nipecotic acid]		orally active inhibitors of GABA uptake	
O=C(O)C1CCCNC1 (centres unmarked) [nipecotic acid, 3-piperidinecarboxylic acid]			inhibition of GABA uptake from the synaptic cleft (GABA uptake [2]): potent inhibitor of GABA uptake; sensitivity of GAT-1 (GAT-1): high sensitivity
